Read-outs that look alike come from different tables or passages of the source. Blank lines part the entries; values can stand above or below the molecule they belong to.
Assays:
[1] = tested on: 3T3-L1 cells; assay: Glucose uptake assay using 3T3-L1 cells; type: cell-based; settings: 1 μM, 72 hours, differentiated 3T3-L1 adipocytes, 14C deoxyglucose uptake; relative to BLX-1002
Method: 3T3-L1 cells were differentiated by the addition of differentiation cocktail (72 μg/ml insulin, 0.5 mM IBMX, 400 ng/ml Dexamethasone) for 4 days and later fed with media without differentation cocktail for 7-8 days. After differentiation the cells were incubated with the either reference compound BLX-1002 or compounds listed in the table 1 at 1 μM concentrations for 72 hours and carried out the glucose uptake assay for 10 min by the addition of KRP buffer supplemented with 2.5 μCi/ml ^14C deoxy glucose. Stimulation Index is defined as the amount of ^14C Deoxyglucose uptake induced by 1 μM of BLX-1002 incubated for 72 hrs in an assay condition as per protocol described above with differentiated 3T3-L1 adipocytes. Values of compounds mentioned in table-1 are with reference to stimulation index of reference compound BLX-1002.

[2] = tested on: IL-1β; assay: IL-1β inhibition in LPS-challenged human PBMC; type: cell-based; settings: for inhibition at 1 µM / inhibition at 10 µM: Homo sapiens, PBMC, read-out: % Inhibition IL1beta
Method: (§1) Human PBMC cells were cultured and incubated with compounds listed in table-4 at 1 and 10 μM concentrations. Cells (1×10^6/mL) were challenged with lipopolysaccharides (LPS) at a concentration of (100 ng/mL) for 20 hours. Cell supernatant was analyzed for the presence of TNF-α, IL-1β and IL-6 cytokines by antibody directed enzyme-linked immunoassay.

[3] = tested on: TNF-α; assay: TNF-α inhibition in LPS-challenged human PBMC; type: cell-based; settings: for % Inhibition TNF alpha / inhibition at 1 µM / inhibition at 10 µM: LPS 100 ng/mL, 20 hours; for inhibition at 1 µM / inhibition at 10 µM: Homo sapiens, PBMC, read-out: % Inhibition TNF alpha
Method: as §1

[4] = tested on: streptozotocin induced diabetic mice; assay: Antidiabetic activity in streptozotocin induced diabetic mice; type: in vivo, Swiss albino mice; parameters: key to % Reduction Cholesterol / % Reduction Triglycerides / % Reduction Glucose: NR=No Reduction; settings: 50 mg/kg oral, 7 days, plasma, compared to control group; for inhibition in vivo at 50 mg/kg: Mus musculus, 168 h
Method: Swiss albino mice of either sex were used in the study at the age of 10 weeks. Diabetes was induced in animals by injecting streptozotocin by i.p. route at a dose of 200 mg/kg body weight. 48 hours after streptozotocin administration, the animals were kept for fasting for 6 hours and blood was collected and plasma separated and glucose was estimated. Animals showing greater than 200 mg/dl glucose levels were considered as diabetic and these animals were randomly distributed into various groups. The compounds listed in the table 3 were administered at a dose of 50 mg/kg body weight by oral route for 7 days. Later animals were fasted for 6 hours and blood was collected and plasma separated. Biochemical estimations like glucose, cholesterol and triglycerides were carried out using the plasma. The effect of compounds mentioned in the table was expressed in terms of percentage reduction in biochemical values as compared to control group.

[5] = target: T1, DPP IV (Homo sapiens, UniProt P27487); assay: DPP IV assay (human plasma as source, H-gly-pro AMC substrate); type: biochemical; settings: compared to vehicle control
T1 construct: using human plasma as a source of DPP IV; from tissue; host or cells: human plasma
T1 sequence (P27487 39-766 limits assumed): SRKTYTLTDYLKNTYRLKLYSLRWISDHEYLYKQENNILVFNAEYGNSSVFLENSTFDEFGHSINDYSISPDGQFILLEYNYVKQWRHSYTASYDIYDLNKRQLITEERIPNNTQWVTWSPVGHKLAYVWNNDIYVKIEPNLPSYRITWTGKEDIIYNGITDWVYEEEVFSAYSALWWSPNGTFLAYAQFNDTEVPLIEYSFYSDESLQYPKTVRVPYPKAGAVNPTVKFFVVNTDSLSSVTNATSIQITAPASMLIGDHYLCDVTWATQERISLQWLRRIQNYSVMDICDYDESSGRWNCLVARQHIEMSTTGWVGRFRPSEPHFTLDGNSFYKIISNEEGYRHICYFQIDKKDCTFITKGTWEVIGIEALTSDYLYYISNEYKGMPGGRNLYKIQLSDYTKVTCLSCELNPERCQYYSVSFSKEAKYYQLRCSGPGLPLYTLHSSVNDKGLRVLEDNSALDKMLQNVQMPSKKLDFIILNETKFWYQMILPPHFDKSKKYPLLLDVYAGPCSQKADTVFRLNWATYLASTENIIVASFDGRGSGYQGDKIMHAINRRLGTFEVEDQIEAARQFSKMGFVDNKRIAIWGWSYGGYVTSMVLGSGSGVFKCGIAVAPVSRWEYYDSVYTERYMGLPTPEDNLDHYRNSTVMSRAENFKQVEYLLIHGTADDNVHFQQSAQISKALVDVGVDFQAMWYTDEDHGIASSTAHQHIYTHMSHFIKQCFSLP
Method: DPP IV assay is carried by using human plasma as a source of DPP IV. The compounds were incubated at a concentration of 1 and 10 μM in assay buffer containing DPP IV enzyme. The compounds were incubated for 1 hr and then the substrate H-gly-pro AMC was added and further incubated for 20 min and then the reaction was stopped on addition of 25% glacial acetic acid. The plates were read in a spectrofluorimeter to get RFU on setting excitation wavelength of 360 nm and emission wavelength of 460 nm. Percentage inhibition is calculated as compared to vehicle control.

[6] = tested on: IL-6; assay: IL-6 inhibition in LPS-challenged human PBMC; type: cell-based; settings: for inhibition at 1 µM / inhibition at 10 µM: Homo sapiens, PBMC, LPS 100 ng/mL, 20 hours
Method: as §1

[7] = read-out: % Reduction Triglycerides
[8] = at tested concentrations, statement in words

Molecule: 5-(3-methoxy-4-{4-[(3-methyl-2-oxo-1,3-oxazolidin-4-yl)methyl]phenoxybenzylidene)-1,3-dihydro-2H-indol-2-one [Example 11]
Stimulation Index [1]: 1.12 | % Inhibition IL1beta ([2]; 1 μM, LPS 100 ng/mL, 20 hours): 17.10% | % Inhibition TNF alpha ([3]; 1 μM): 18.77% | % Inhibition TNF alpha ([3]; 10 μM): 26.07%

Molecule: CCN1C(=O)OCC1Cc1ccc(Oc2ccc(/C=C3/SC(=O)NC3=O)cc2)cc1 (stereo not shown) [Example 3, 5-(4-{4-[(3-ethyl-2-oxo-1,3-oxazolidin-4-yl)methyl]phenoxy}benzylidene)-1,3-thiazolidine-2,4-dione]
% Reduction Cholesterol [4]: NR | % Reduction Glucose [4]: NR | inhibition in vivo at 50 mg/kg [4, 7]: 3.8%

Molecule: CN1C(=O)OCC1Cc1ccc(Oc2ccc(/C=C3\C(=O)Nc4ccccc43)cc2)cc1 (stereo not shown) [Example 4]
inhibition at 1 µM ([2]; 1 μM, LPS 100 ng/mL, 20 hours): 1.55% | inhibition at 10 µM ([2]; LPS 100 ng/mL, 20 hours): 10.7% | inhibition at 1 µM ([3]; 1 μM): 8.77% | inhibition at 10 µM ([3]; 10 μM): 2.85%

Molecule: CCN1C(=O)OCC1Cc1ccc(Oc2ccc(/C=C3\C(=O)Nc4ccccc43)cc2)cc1 (stereo not shown) [Example 5]
inhibition at 1 µM ([3]; 1 μM): 1.72% | inhibition at 10 µM ([3]; 10 μM): 9.77%

inhibition at 1 µM [5]: 3.55% | inhibition at 10 µM [5]: 7.75%
Molecule: CN1C(=O)OCC1Cc1ccc(Oc2ccc(/C=C3/C(=O)Nc4ccccc43)cc2F)cc1 (stereo not shown) [Example 7]
inhibition at 1 µM ([3]; 1 μM): 0.93% | inhibition at 10 µM ([3]; 10 μM): 6.43%

Molecule: CCN1C(=O)OCC1Cc1ccc(Oc2ccc(/C=C3\C(=O)Nc4ccccc43)cc2Cl)cc1 (stereo not shown) [Example 10]
inhibition at 1 µM [6]: 15.5% | inhibition at 10 µM [6]: 7.18% | inhibition at 1 µM ([3]; 1 μM): 20.2% | inhibition at 10 µM ([3]; 10 μM): 35%

Molecule: CCN1C(=O)OCC1Cc1ccc(Oc2ccc(/C=C3\C(=O)Nc4ccccc43)cc2F)cc1 (stereo not shown) [Example 12]
inhibition at 1 µM [6]: 2.67% | inhibition at 10 µM [6]: 1.65% | inhibition at 1 µM ([3]; 1 μM): 13.6% | inhibition at 10 µM ([3]; 10 μM): 28.1%

inhibition at 1 µM [5]: 7.07% | inhibition at 10 µM [5]: 9.86%
Molecule: CCN1C(=O)OCC1Cc1ccc(Oc2ccc(/C=C3\C(=O)Nc4ccccc43)cc2C(F)(F)F)cc1 (stereo not shown) [Example 15]
inhibition at 1 µM ([2]; 1 μM, LPS 100 ng/mL, 20 hours): 1.78% | inhibition at 1 µM [6]: 1.16% | inhibition at 1 µM ([3]; 1 μM): 24.5% | inhibition at 10 µM ([3]; 10 μM): 15.9%

Molecule: CN1C(=O)OCC1Cc1ccc(Oc2ccc(/C=C3\C(=O)Nc4ccccc43)c(Cl)c2)cc1 (stereo not shown) [Example 16]
inhibition at 1 µM ([3]; 1 μM): 6.6%

inhibition at 1 µM [5]: 4.77% | inhibition at 10 µM [5]: 7.25%
Molecule: O=C1NC(Cc2ccc(Oc3ccc(/C=C4/SC(=O)NC4=O)cc3F)cc2)CO1 (stereo not shown) [Example 31, 5-(3-fluoro-4-{4-[(2-oxo-1,3-oxazolidin-4-yl)methyl]phenoxy}benzylidene)-1,3-thiazolidine-2,4-dione]

Molecule: CN1CC(Cc2ccc(Oc3ccc(/C=C4/SC(=S)N(CC(=O)O)C4=O)cc3)cc2)OC1=O (stereo not shown) [Example 32, 3-methyl-5-(4-{4-[(E)-(3-aceticacid-4-oxo-2-thioxo-1,3-thiazolidin-5-ylidene)methyl]phenoxy}benzyl)-1,3-oxazolidin-2-one]
Stimulation Index [1]: 0.89

inhibition at 1 µM [5]: 9.52% | inhibition at 10 µM [5]: -0.7%
Molecule: CN1C(=O)OCC1Cc1ccc(Oc2ccc(/C=C3/SC(=S)NC3=O)cc2)cc1 (stereo not shown) [Example 34, 3-methyl-4-(4-{4-[(4-oxo-2-thioxo-1,3-thiazolidin-5-ylidene)methyl]phenoxy}benzyl)-1,3-oxazolidin-2-one]
% Reduction Cholesterol [4]: NR | inhibition in vivo at 50 mg/kg ([4]; read-out: % Reduction Glucose): 50.9% | inhibition in vivo at 50 mg/kg [4, 7]: 73.4%

Molecule: CCN1C(=O)OCC1Cc1ccc(Oc2ccc(/C=C3/SC(=S)N(CC(=O)O)C3=O)cc2)cc1 (stereo not shown) [Example 37]
% Reduction Cholesterol [4]: NR | % Reduction Triglycerides [4]: NR | inhibition in vivo at 50 mg/kg ([4]; read-out: % Reduction Glucose): 22.5%

Molecule: CN1C(=O)OCC1Cc1ccc(Oc2ccc(/C=C3/SC(=S)NC3=O)cc2Cl)cc1 (stereo not shown) [Example 40, 4-(4-{2-chloro-4-[(4-oxo-2-thioxo-1,3-thiazolidin-5-ylidene)methyl]phenoxy}benzyl)-3-methyl-1,3-oxazolidin-2-one]
% Reduction Cholesterol [4]: NR | inhibition in vivo at 50 mg/kg ([4]; read-out: % Reduction Glucose): 34.2% | inhibition in vivo at 50 mg/kg [4, 7]: 17.8%

Molecule: CN1C(=O)OCC1Cc1ccc(Oc2ccc(/C=C3/SC(=S)N(CC(=O)O)C3=O)cc2Cl)cc1 (stereo not shown) [Example 41, [4-oxo-5-(3-chloro-4-{4-[(3-methyl-2-oxo-1,3-oxazolidin-4-yl)methyl]phenoxy}benzylidene)-2-thioxo-1,3-thiazolidin-3-yl]acetic acid]
% Reduction Cholesterol [4]: NR | % Reduction Triglycerides [4]: NR | inhibition in vivo at 50 mg/kg ([4]; read-out: % Reduction Glucose): 66.5%

inhibition at 1 µM [5]: 1.99% | inhibition at 10 µM [5]: 9.92%
Molecule: CN1C(=O)OCC1Cc1ccc(Oc2ccc(/C=C3/SC(=S)NC3=O)cc2C(F)(F)F)cc1 (stereo not shown) [Example 55]

inhibition at 1 µM [5]: -1.26% | inhibition at 10 µM [5]: 12.4%
Molecule: CCN1C(=O)OCC1Cc1ccc(Oc2ccc(/C=C3/SC(=S)NC3=O)cc2C(F)(F)F)cc1 (stereo not shown) [Example 59]

Molecule: CCN1C(=O)OCC1Cc1ccc(Oc2ccc(CC3SC(=O)NC3=O)cc2)cc1 (stereo not shown) [Example 62, 5-(4-{4-[(3-ethyl-2-oxo-1,3-oxazolidin-4-yl)methyl]phenoxy}benzyl)-1,3-thiazolidine-2,4-dione]
% Reduction Cholesterol [4]: NR | inhibition in vivo at 50 mg/kg ([4]; read-out: % Reduction Glucose): 36.2% | inhibition in vivo at 50 mg/kg [4, 7]: 24.7%

Molecule: CN1C(=O)OCC1Cc1ccc(Oc2ccc(CC3C(=O)Nc4ccccc43)cc2)cc1 (stereo not shown) [Example 64]
inhibition at 1 µM ([2]; 1 μM, LPS 100 ng/mL, 20 hours): 8.77% | inhibition at 10 µM ([2]; LPS 100 ng/mL, 20 hours): 25.9% | inhibition at 1 µM ([3]; 1 μM): 9.43% | inhibition at 10 µM ([3]; 10 μM): 15.6%

Molecule: CCN1C(=O)OCC1Cc1ccc(Oc2ccc(CC3C(=O)Nc4ccccc43)cc2C(F)(F)F)cc1 (stereo not shown) [Example 65]
inhibition at 1 µM ([3]; 1 μM): 4.6% | inhibition at 10 µM ([3]; 10 μM): 1.67%

Molecule: CCN1C(=O)OCC1Cc1ccc(Oc2ccc(CC3C(=O)Nc4ccccc43)cc2F)cc1 (stereo not shown) [Example 66]
inhibition at 1 µM [6]: 3.58%

Molecule: COc1cc(CC2C(=O)Nc3ccccc32)ccc1Oc1ccc(CC2COC(=O)N2C)cc1 (stereo not shown) [Example 67]
inhibition at 1 µM ([2]; 1 μM, LPS 100 ng/mL, 20 hours): 12.1% | inhibition at 10 µM ([2]; LPS 100 ng/mL, 20 hours): 20.9% | inhibition at 10 µM [6]: 2.12% | inhibition at 1 µM ([3]; 1 μM): 20.9% | inhibition at 10 µM ([3]; 10 μM): 34%

Molecule: CCN1C(=O)OCC1Cc1ccc(Oc2ccc(CC3C(=O)Nc4ccccc43)cc2OC)cc1 (stereo not shown) [Example 69]
inhibition at 1 µM ([2]; 1 μM, LPS 100 ng/mL, 20 hours): 33.3% | inhibition at 10 µM ([2]; LPS 100 ng/mL, 20 hours): 39.7% | inhibition of IL-1β production [2, 8]: can inhibit the production | inhibition at 1 µM [6]: 2.98% | inhibition at 10 µM [6]: 12.4% | inhibition of IL-6 production [6, 8]: can inhibit the production | inhibition at 1 µM ([3]; 1 μM): 35.2% | inhibition at 10 µM ([3]; 10 μM): 50.6% | inhibition of TNF-α production [3, 8]: can inhibit the production

Molecule: CN1C(=O)OCC1Cc1ccc(Oc2ccc(CC3SC(=O)NC3=O)cc2C(F)(F)F)cc1 (stereo not shown) [Example 71, 4-{4-[(3-methyl-2-oxo-1,3-oxazolidin-4-yl)methyl]phenoxy)-3-(trifluoromethylbenzyl]-1,3-thiazolidine-2,4-dione]
% Reduction Cholesterol [4]: NR | % Reduction Triglycerides [4]: NR | inhibition in vivo at 50 mg/kg ([4]; read-out: % Reduction Glucose): 49.9%

inhibition at 1 µM [5]: 2.44% | inhibition at 10 µM [5]: 7.64%
Molecule: CN1C(=O)OCC1Cc1ccc(Oc2ccc(CC3C(=O)Nc4ccccc43)cc2C(F)(F)F)cc1 (stereo not shown) [Example 75]

Molecule: CN1C(=O)OCC1Cc1ccc(Oc2ccc(CC3SC(=S)N(CC(=O)O)C3=O)cc2C(F)(F)F)cc1 (stereo not shown) [Example 86]
% Reduction Cholesterol [4]: NR | inhibition in vivo at 50 mg/kg ([4]; read-out: % Reduction Glucose): 48.8% | inhibition in vivo at 50 mg/kg [4, 7]: 15.5%

Source: patent publication US20100305174A1, “Novel Heterocyclic Derivatives” (ORCHID RESEARCH LABORATORIES LIMITED, priority 2005, published 2010)
